Test [1] has as its target T1, L55P variant transthyretin (Homo sapiens, UniProt P02766, L75P). Put plainly: Inhibition of transthyretin aggregation at acidic pH (turbidity at 400 nm). It is filed as biochemical. The conditions noted are these: L55P 3.6 μM, pH 5.0; for Aggregation of transthyretin, Mean (1:1): ligand 3.6 μM; for Aggregation of transthyretin, Mean (3:1): ligand 10.8 μM. As for the experimental part: (§1) 3.3.2 Inhibition of transthyretin aggregation by 4ajm15: In pilot experiments, transthyretin aggregates were formed from wild type transthyretin (3.6 μM) after incubation at acidic pH for 3 d at 37° C. (Colon and Kelly, 1992). The efficacy of 4ajm15 as an inhibitor of transthyretin aggregate formation was then compared with other transthyretin ligand compounds. […] After 30 min at 37° C., the pH was adjusted to pH 4.4 (with 0.2 M sodium acetate buffer pH 4.0), and the ˜1 ml mixtures were incubated unstirred for 3 d at 37° C.
(§2) Using the same method the activities of mds84 and 4ajm15 as inhibitors of the aggregation of both wild type transthyretin and the most aggressively aggregating transthyretin variant, L55P, were evaluated in triplicate with both proteins at 3.6 μM and with one (3.6 μM) or 3 equivalents (10.8 μM) of each ligand. Wild type transthyretin was studied at pH 4.4 and L55P at pH 5.0. […] Mean values and standard deviations are shown in Table 2 and in FIG. 4, where results with 1:1 molar ratio are shown cross hatched and 3:1 molar ratio in open bars.

The target of test [2] is T2, wild type transthyretin (Homo sapiens, UniProt P02766). The test is described as above. It is filed as biochemical. Also on record: isolated from pooled normal human plasma, was obtained from Scipac; purchased Scipac Ltd, Sittingbourne, Kent, UK; host or cells: pooled normal human plasma. Conditions: wild type 3.6 μM, pH 4.4, 3 d 37° C.; for Aggregation of transthyretin, Mean (1:1): ligand 3.6 μM; for Aggregation of transthyretin, Mean (3:1): ligand 10.8 μM. The protocol:
3.3.1 Wild type transthyretin. The purified wild type transthyretin (liquid and lyophilised) used in these experiments, isolated from pooled normal human plasma, was obtained from Scipac, (Sittingbourne, Kent, UK). Protein concentration was determined by absorbance at 280 nm after correction for light scattering at 320 nm using the absorption coefficient E1 cm^1%=14.0. […] Nano electrospray ionisation mass spectrometry confirmed the presence of normal and cysteinylated transthyretin monomers (Terazaki et al, 1998) under denaturing conditions, and solvent-bound transthyretin tetramer (Nettleton et al, 1998) under mild desolvation conditions.
as §1, §2

The target of another test is T3, transthyretin (Homo sapiens, UniProt P02766).
T3 construct: Native tetrameric transthyretin was purified from fractionated human plasma; from tissue; host or cells: human plasma
Put plainly: Intrinsic fluorescence quenching of transthyretin by ligand titration. Format: binding. Conditions: 1 μM transthyretin, PBS pH 7.4, ligand 0-2 μM, excitation 280 nm, 20° C. As for the experimental part: 3.2.1. Binding of 4ajm15 and mds84 by transthyretin. The interactions between the ligands 4ajm15 or mds84 and transthyretin were studied by monitoring intrinsic fluorescence in the emission range 300-500 nm on excitation at 280 nm using a Perkin Elmer LS55 fluorimeter and a standard 1 cm path length quartz cell at 20° C. Quenching of tryptophan was achieved by titrating 1 μM transthyretin in PBS, pH 7.4 with increasing concentrations of each ligand in the range 0-2 μM (FIG. 2A). […] At the same time the changes in 4ajm15 fluorescence upon binding to the protein were monitored in the emission range 400-600 nm and excitation at 340 nm that is the wavelength specific for 4ajm15 excitation. In these conditions, accumulation of the spectra highlights an isosbestic point at 483 nm (FIG. 2B). The same results were achieved by using mds84 (not shown). The results of the titration of 4ajm15 in presence and absence of transthyretin support a model of binding in which both the binding sites are simultaneously occupied by the palindromic ligand.
In each case increasing concentrations of ligand (0-2 μM) were added to 1 μM protein. The arrow in FIG. 2B indicates the isosbestic point at 483 nm occurring on formation of the protein ligand complex. […] The percent quenching represents ΔF/F0 where F0 is fluorescence intensity prior to the addition of ligands and AF is the decrease in fluorescence at a given ligand concentration.

For test [3], the target named is T1, L55P variant transthyretin. Put plainly: Differential scanning calorimetry of transthyretin with ligand. It is filed as binding. Conditions: five fold molar excess of ligand. (DSC measures the heat that a sample takes up or gives off during a temperature scan.)
Test [4] deals with T2, wild type transthyretin. The description is as above. It is filed as binding. Also on record: isolated from pooled normal human plasma, was obtained from Scipac; purchased Scipac Ltd, Sittingbourne, Kent, UK; host or cells: pooled normal human plasma. The conditions noted are these: five fold molar excess of ligand.
Test [5] has as its target T1, L55P variant transthyretin. Put plainly: Mass spectrometric analysis of subunit exchange. It is filed as biochemical. The arrangement: made in house. Conditions: L55P variant, decreasing molar ratios of ligand. The protocol:
4.2 Mass spectrometric analysis of subunit exchange. Recombinant wild type, L55P and V30M transthyretin variants were biosynthetically labelled with isotopes [^15N] and [^15N, ^13C] as previously described (Keetch C A et al, 2005). Immediately prior to analysis, proteins were buffer exchanged into 20 mM ammonium acetate, pH 7.0 using Micro Biospin columns (Bio-Rad, UK). The subunit composition of transthyretin was monitored as a function of time by incubating an equimolar solution (4.4 μM) of [^15N] and [^15N, ^13C] labelled proteins in the presence of 2-fold molar excess of 4ajm15 in DMSO or 2.5% DMSO alone as a control. Each experiment was carried out in triplicate at room temperature and at 4° C. as well, since it is known that subunit exchange is accelerated at low temperatures. Nanoflow ESMS was performed on a QToF2 instrument (Waters/Micromass UK, Ltd.) modified for high mass operation (Sobott et al, (2002)) and calibrated externally using caesium iodide (100 mg/ml). Each solution, 1.5 μl, was electrosprayed from gold coated borosilicate capillaries prepared in-house as described (Nettleton E J, et al, 1998). To preserve the non-covalent interactions in the transthyretin tetramer, the MS parameters applied were: capillary voltage 1.6 kV, sample cone 160 V, extractor cone 20 V, ion transfer stage pressure 7.0×10 ^−3 mbar, quadrupole analyzer pressure 9.5×10^−4 mbar and ToF analyzer pressure 1.7×10^−6 mbar. Data were processed with MassLynx software (Waters/Micromass UK, Ltd.) and are presented with minimal smoothing and without background subtraction.
This most unstable transthyretin variant rapidly undergoes spontaneous and extensive subunit exchange, as illustrated in FIG. 8. FIGS. 9-11 show the effects of decreasing molar ratios of mds84 on inhibition of subunit exchange. […] At lower molar ratios of mds84 some exchange takes place but the transthyretin molecules which bind mds84 are still completely stabilized.

The results in this text go back to patent US8236984B2, “Compound and use thereof in the treatment of amyloidosis” (Pentraxin Therapeutics Ltd., priority 2007, dated 2012).

Turning to `N[C@@H](Cc1cc(I)c(Oc2cc(I)c(O)c(I)c2)c(I)c1)C(=O)O` [T4, 3,5,3′,5′-Tetraiodo-L-Thyronine, reference compound], in test [1], the “Aggregation of transthyretin, Mean (1:1)” value is reported as 55 per cent of control with DMSO alone and the “Aggregation of transthyretin, Mean (3:1)” value was 22 per cent of control with DMSO alone. Moreover, at wild type transthyretin [2], the “Aggregation of transthyretin, Mean (1:1)” value is listed as 25 per cent of control with DMSO alone and the “Aggregation of transthyretin, Mean (3:1)” value is given as 1.2 per cent of control with DMSO alone. Further, the “intrinsic fluorescence of transthyretin remaining after titration” value on transthyretin is recorded as 60%.
For `O=C(O)c1ccc2nc(-c3cc(Cl)cc(Cl)c3)oc2c1` [Fx-1006A, 2-(3,5-dichlorophenyl)benzo oxazole-6-carboxylic acid, reference compound], in test [3], the “Tm of L55P variant transthyretin with the ligand” value turned out to be 98.3 °C and the “increase in Tm of L55P variant transthyretin” value turned out to be 3.7 °C. Further, on wild type transthyretin [4], the “Tm of wild type transthyretin with the ligand” value was determined as 104.9 °C and the “increase in Tm of wild type transthyretin” value stood at 4.6 °C. In test [1], the “Aggregation of transthyretin, Mean (1:1)” value is 32 per cent of control with DMSO alone and the “Aggregation of transthyretin, Mean (3:1)” value was 16.8 per cent of control with DMSO alone. Further, at wild type transthyretin [2], the “Aggregation of transthyretin, Mean (1:1)” value is 12.5 per cent of control with DMSO alone and the “Aggregation of transthyretin, Mean (3:1)” value was 1.14 per cent of control with DMSO alone. In addition, the “ligand bound per mole of transthyretin for complete stabilization” value in test [5] is listed as “two moles”.
